Test results: patent US20240116845A1, “INDENE COMPOUNDS, PHARMACEUTICAL COMPOSITIONS THEREOF, AND THEIR THERAPEUTIC APPLICATIONS” (NucMito Pharmaceuticals Co., Ltd., priority 2021, published 2024)

Columns and labels:
Type in all cases: cell-based
[1] = system: alpha-smooth muscle actin (α-SMA); test: Inhibition of TGF-β induced expression of alpha-smooth muscle actin in CFSC cells (western blot); conditions: compound at 10 μM, TGF-β (10 ng/mL), 24 hours
Method: The ability of a compound to inhibit the TGF-β induced expression of alpha-smooth muscle actin (α-SMA) was evaluated in CCl4-treated fat storing (CFSC) cells. α-SMA is considered as a reliable marker of hepatic stellate cell activation and a key biomarker for liver fibrosis.
CFSC cells maintained in a DMEM medium supplemented with 10% fetal bovine serum were seeded to 12-well culture dishes and grown to a confluence of 60-70% the next day. Culture was changed to a serum-free DMEM medium and the cells were treated with the compound at 10 μM in the presence of TGF-β (10 ng/mL). The cells were incubated for another 24 hours. All culture was maintained at 37° C. in 5% carbon dioxide.
An NP-40 lysate solution (50 mM Tris, pH 7.4, 150 mM NaCl, 1% NP-40) with EDTA free cocktail added was used to lyse the cells on ice for 30 min. The lysate was collected and centrifuged at 4° C. for 10 min at 12,000 rpm. The pellet was discarded and the supernatant was transferred to a new tube. The cell lysate was loaded with 5× loading buffer and boiled for 10 min, resolved by 10% SDS-polyacrylamide gel electrophoresis (SDS-PAGE), and transferred to a PVDF membrane. The membrane was blocked with 5% skim milk in Tris-buffered saline and TWEEN® 20 (TBST; 10 mM Tris-HCl, pH 8.0, 150 mM NaCl, 0.1% TWEEN® 20) for 1 h at room temperature and then incubated with α-SMA and β-actin antibodies overnight at 4° C. After washing twice with TBST, the membrane was probed with a […] anti-immunoglobulin (1:5000 dilution) for 1 h at room temperature. After two subsequent rinses in TBST, immunoreactive products were reacted with ECL and visualized by a UVP CHEMSTUDIO™ imaging system. The western blotting bands are quantitated using an ImageJ software. The percentage of inhibition was obtained by calculating the percentage decrease in the band intensity compared to the one treated with TGF-β only.
The results are summarized in Table 1, where A represents a value no less than 80/% inhibition, B represents a value less than 80% but no less than 50% inhibition, C represents a value less than 50% but no less than 30% inhibition, and D represents a value less than 30% inhibition with a compound at 10 μM.

[2] = system: MDA-MB-231 (breast cancer); test: Antiproliferative activity, CCK-8 cell viability; conditions: Homo sapiens, 72 h, read-out: Inhibition of Cancerous Cells, MDA-MB-231
Method: (§1) The antiproliferative activity of a compound was determined in the following cell lines: MDA-MB-231 (breast cancer), HepG2 (liver cancer), SW480 (colon cancer), B16F10 (malignant melanoma), A431 (epidermoid carcinoma), A549 (lung adenocarcinoma), and HeLa (cervical cancer). MDA-MB-231, HepG2, SW480, B16F10, and A431 cells were cultured in Dulbecco's modified Eagle's medium (DMEM) containing 10% fetal bovine serum (FBS). HeLa cells were cultured in MEM/EBSS (MEM) containing 10% FBS. A549 cells were maintained in Kaighn's modification of Ham's F-12 medium containing 10% FBS. The Cell Counting Kit-8 (CCK-8) assay was used to determine the cell viability of cells following treatment with the compound.
(§2) Briefly, cells were seeded in a 96-well plate at a density of 2,000-5,000 cells/well. Following attachment, the cells were treated with the compound in media at a compound concentration of 3.3 μM, 10 μM, or 30 μM, or DMSO as a control. After the cells were incubated at 37° C. for 72 h, the CCK-8 solution (10 μL) was added to each well. After incubation at 37° C. for 4 h, the absorbance value of each well was determined using a multi-well plate reader at 450 nm. The percentage of cell viability was determined with respect to the DMSO-treated cells. The results were summarized in Table 2-4 below, wherein A represents no less than 50% inhibition of cell growth; B represents less than 50% but no less than 30% inhibition of cell growth; C represents less than 30% inhibition of cell growth.

[3] = system: A549 (lung adenocarcinoma); test: Antiproliferative activity, CCK-8 cell viability; conditions: Homo sapiens, 72 h, read-out: Inhibition of Cancerous Cells, A549
Method: as §1, §2

HepG2 (liver cancer) = test: Antiproliferative activity, CCK-8 cell viability; conditions: Homo sapiens, 72 h, read-out: Inhibition of Cancerous Cells, HepG2
Method: as §1, §2

HeLa (cervical cancer) = test: Antiproliferative activity, CCK-8 cell viability; conditions: Homo sapiens, 72 h, read-out: Inhibition of Cancerous Cells, HELA
Method: as §1, §2

SW480 (colon cancer) = test: Antiproliferative activity, CCK-8 cell viability; conditions: Homo sapiens, 72 h, read-out: Inhibition of Cancerous Cells, SW480
Method: as §1, §2

[4] = system: B16F10 (malignant melanoma); test: Antiproliferative activity, CCK-8 cell viability; conditions: Mus musculus, B16-F10, 72 h, read-out: Inhibition of Cancerous Cells, B16F10
Method: as §1, §2

[5] = compound concentration of 3.3 μM
[6] = compound concentration of 10 μM
[7] = compound concentration of 30 μM

Structure (SMILES) | inhibition at 10 µM [1] [%] | also measured
CC1=C(CC(=O)NO)c2cc(F)ccc2/C1=C\c1ccc(Br)c2ccccc12 [Compound C4, (Z)-2-(1-((4-Bromonaphthalen-1-yl)methylene)-5-fluoro-2-methyl-1H-inden-3-yl)-N-hydroxyacetamide] | ≥ 80 | 
CC1=C(CC(=O)N(C)O)c2cc(F)ccc2/C1=C\c1ccc(C)c2ccccc12 [Compound C1, (Z)-2-(5-Fluoro-2-methyl-1-((4-methylnaphthalen-1-yl)methylene)-1H-inden-3-yl)-N-hydroxy-N-methylacetamide] | 50 to 80 | 
CC1=C(CC(=O)O)c2cc(F)ccc2/C1=C\c1ccc(Oc2ccc(C)c(F)c2)cc1 [Compound D4, 2-[(1Z)-5-Fluoro-2-methyl-1-({4-[3-fluoro-4-methylphenoxy]phenyl}-methylidene)-1H-inden-3-yl]acetic acid] | ≥ 80 | 
CC1=C(CC(=O)O)c2cc(F)ccc2/C1=C\c1cccc(N(C)c2ccccc2)c1 [Compound D37, 2-[(1Z)-5-Fluoro-2-methyl-1-({3-[methyl(phenyl)amino]phenyl}methylidene)-1H-inden-3-yl]acetic acid] | ≥ 80 | 
CC1=C(CC(=O)O)c2cc(C(C)(C)C)ccc2/C1=C\c1ccc(Oc2ccc(F)cc2)cc1 [Compound D17, 2-[(1Z)-5-Tert-butyl-2-methyl-1-({4-[4-fluorophenoxy]phenyl}methylidene)-1H-inden-3-yl]acetic acid] | ≥ 80 | 
CC1=C(CC(=O)O)c2cc(F)ccc2/C1=C\c1ccc(COc2ccc(F)cc2)cc1 [Compound A1, 2-[(1Z)-5-Fluoro-1-(4-((4-fluorophenoxy)methyl)benzylidene)-2-methyl-1H-inden-3-yl]-acetic acid] | ≥ 80 | 
CC1=C(CC(=O)NO)c2cc(F)ccc2/C1=C/c1ccc(C(C)(C)C)cc1 [Compound E6, (E)-2-(1-(4-(Tert-butyl)benzylidene)-5-fluoro-2-methyl-1H-inden-3-yl)-N-hydroxyacetamide] | 50 to 80 | 
CC1=C(CC(=O)N(C)O)c2cc(F)ccc2/C1=C\c1ccc(C2CC2)cc1 [Compound B3, (Z)-2-(1-(4-Cyclopropylbenzylidene)-5-fluoro-2-methyl-1H-inden-3-yl)-N-hydroxy-N-methylacetamide] | ≥ 80 | 
CC1=C(CC(=O)O)c2cc(F)ccc2/C1=C\c1ccnc2ccccc12 [Compound C5, (Z)-2-(5-Fluoro-2-methyl-1-(quinolin-4-ylmethylene)-1H-inden-3-yl)acetic acid] | ≥ 80 | 
COc1ccc2c(c1)/C(=C\c1cccc(Oc3ccccc3)c1)C(C)=C2CC(=O)O [Compound D35, 2-[(1Z)-6-Methoxy-1-(3-(phenoxy)benzylidene)-2-methyl-1H-inden-3-yl]-acetic acid] | < 30 | 
CC1=C(CC(=O)NO)c2cc(F)ccc2/C1=C\c1ccc(C2=CCCC2)cc1 [Compound D40, (Z)-2-(1-(4-(Cyclopent-1-en-1-yl)benzylidene)-5-fluoro-2-methyl-1H-inden-3-yl)-N-hydroxyacetamide] | 50 to 80 | 
CC1=C(CC(=O)O)c2cc(F)ccc2/C1=C\c1ccc(Br)c2ccccc12 [Compound C3, (Z)-2-(1-((4-Bromonaphthalen-1-yl)methylene)-5-fluoro-2-methyl-1H-inden-3-yl)acetic acid] | ≥ 80 | 
COc1ccc2c(c1)/C(=C\c1ccc(Oc3ccccc3)cc1)C(C)=C2CC(=O)O [Compound D29, 2-[(1Z)-6-Methoxy-1-(4-(phenoxy)benzylidene)-2-methyl-1H-inden-3-yl]-acetic acid] | 50 to 80 | 
O=C(O)CC1=C/C(=C/c2ccc(Oc3ccc(F)cc3)cc2)c2ccccc21 [Compound D32, 2-[(1Z)-1-{[4-(4-Fluorophenoxy)phenyl]methylidene}-1H-inden-3-yl]acetic acid] |  | inhibition at 3.3 µM [2, 5]: < 30%; inhibition at 10 µM [2, 6]: < 30%; inhibition at 30 µM [2, 7]: 30 to 50%; inhibition at 3.3 µM [3, 5]: < 30%; inhibition at 10 µM [3, 6]: < 30%; inhibition at 30 µM [3, 7]: 30 to 50%; inhibition at 3.3 µM (HepG2 (liver cancer); [5]): ≥ 50%; inhibition at 10 µM (HepG2 (liver cancer); [6]): ≥ 50%; inhibition at 30 µM (HepG2 (liver cancer); [7]): ≥ 50%; inhibition at 3.3 µM (HeLa (cervical cancer); [5]): 30 to 50%; inhibition at 10 µM (HeLa (cervical cancer); [6]): 30 to 50%; inhibition at 30 µM (HeLa (cervical cancer); [7]): ≥ 50%; inhibition at 3.3 µM (SW480 (colon cancer); [5]): < 30%; inhibition at 10 µM (SW480 (colon cancer); [6]): < 30%; inhibition at 30 µM (SW480 (colon cancer); [7]): < 30%; inhibition at 3.3 µM [4, 5]: < 30%; inhibition at 10 µM [4, 6]: 30 to 50%; inhibition at 30 µM [4, 7]: ≥ 50%
CC1=C(CC(=O)O)c2cc(F)ccc2/C1=C\c1ccc(C2=CCCC2)cc1 [Compound D39, (Z)-2-(1-(4-(Cyclopent-1-en-1-yl)benzylidene)-5-fluoro-2-methyl-1H-inden-3-yl)acetic acid] | 50 to 80 | 
CC1=C(CC(=O)O)c2cc(F)ccc2/C1=C\c1ccc(Oc2cccc([N+](=O)[O-])c2)cc1 [Compound D6, 2-[(1Z)-5-Fluoro-2-methyl-1-({4-[3-nitrophenoxy]phenyl}methylidene)-1H-inden-3-yl]acetic acid] | < 30 | 
COc1ccc2c(c1)C(CC(=O)O)=C(C)/C2=C/c1ccc(Oc2ccc(F)cc2)cc1 [Compound D10, 2-[(1Z)-5-Methoxy-2-methyl-1-({4-[4-fluorophenoxy]phenyl}methylidene)-1H-inden-3-yl]acetic acid] | ≥ 80 | 
CC1=C(CC(N)=O)c2cc(F)ccc2/C1=C\c1ccc(C(C)(C)C)cc1 [Compound D41, (Z)-2-(1-(4-(Tert-butyl)benZylidene)-5-fluoro-2-methyl-1H-inden-3-yl)acetamide] | ≥ 80 | 
CC1=C(CC(=O)O)c2cc(F)ccc2/C1=C\c1ccc(OCc2ccccc2)cc1 [Compound A2, 2-[(1Z)-5-Fluoro-1-(4-(benzyloxy)benzylidene)-2-methyl-1H-inden-3-yl]-acetic acid] | ≥ 80 | 
